Experimental findings from patent US10869884B2, “Cyclodextrin based polymers, methods, compositions and applications thereof” (ATEN PORUS LIFESCIENCES, priority 2016, dated 2020) are described below.

Holding throughout (format): in vivo, BALB/c mice
The nature of series [1]: Body weight in the Adriamycin nephropathy (FSGS) dose response/frequency study. The note with it: ADR mice, 40 mg/kg/day s.c., 10 weeks, compared to normal mice. As for the experimental part:
(§1) Experimental Protocol: 6 animals (BALB/c mice) per group of 6-7 weeks of age were used. Nephropathy was induced in all animals, except group 1 (normal control), with Adriamycin (ADR, 11 mg/kg, i.v., single dose) at dose volume of 6 ml/kg. Normal saline (0.9%) was used as vehicle for the reference and test compounds. Treatment was started 24 hours after Adriamycin injection. Groups of animals (n=6) were treated subcutaneously with vehicle, HBCD, Polymer A and Polymer B at the doses and regimens shown in FIG. 10, for 10 weeks. At the end of the study, animals were sacrificed by CO2 exposure, blood samples and kidneys were collected for the estimation of various biomarkers in serum.
Body weights: Body weights were measured at the beginning of study and weekly throughout for ten weeks (FIG. 11) to provide a general assessment of rodent health after therapy.

In series [2] the test system is ADR-induced nephropathy. In words: Kidney histopathology (H/E and PAS staining, mesangial expansion) in the Adriamycin nephropathy model. The note with it: ADR mice, 40 mg/kg/day s.c. (group 3), 10 weeks. As for the experimental part:
as §1
Histopathology: At the end of the study, kidney samples were collected from each animal, fixed in 10% NBF (Neutral Buffered […]) and subjected to histopathology. Periodic acid-Schiff (PAS) or Hematoxylin and Eosin (H/E) staining of 4 micron-thick tissue sections was performed according to the standard protocols. Mesangial expansion area was determined based on the area of PAS staining.

Series [3] deals with ADR-induced nephropathy. In words: Serum blood urea nitrogen (BUN) in the Adriamycin nephropathy (FSGS) model. The note with it: ADR mice, 40 mg/kg/day s.c., end of study. As to the method:
as §1
Serum Analysis: Serum samples were analysed in an Automated Clinical Chemistry Analyzer EM360, Transasia Bio-medicals Ltd, for albumin and creatinine. • (a) Blood Urea Nitrogen (BUN) assay to assess the level of kidney function was analysed by the GLDH Urease method using an Erba standard BUN kit. (FIG. 13). Administration of ADR to induce nephropathy increased blood urea nitrogen levels as one would expect from an impaired kidney. […] The combination of data from these studies serves to illustrate the potential of the polymers of the present disclosure as treatment options for kidney disease compared to known cholesterol clearance compounds.

As for hydroxypropyl β-cyclodextrin [HBCD], the mean body weight entry in series [1] is given as “largest drop in mean body weight without any substantial rebound”. In the series on ADR-induced nephropathy [2], the “kidney histopathology (glomeruli appearance)” value is “glomeruli that are normal in appearance”. Moreover, the “serum blood urea nitrogen (BUN) level” value in the series on ADR-induced nephropathy [3] is “BUN levels return to that found for the control group”.
